According to PubChem BioAssay (NCI):
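Grown in 96-well plates, cells were treated for 48 hours with each compound at five concentrations. Insufficient inhibition: endpoint recorded as highest concentration tested. GI50 is the concentration that inhibits growth by half. The concentration for full growth arrest is given as TGI.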

Tests used:
Assay in all cases: growth of human tumour cells (NCI), 48 h
CAKI-1 renal = test system: CAKI-1 renal
MCF7 breast = test system: MCF7 breast
BT-549 breast = test system: BT-549 breast
HS 578T breast = test system: HS 578T breast
786-0 renal = test system: 786-0 renal
A498 renal = test system: A498 renal
IGROV1 ovarian = test system: IGROV1 ovarian
HT29 colon = test system: HT29 colon
OVCAR-4 ovarian = test system: OVCAR-4 ovarian
SF-268 CNS = test system: SF-268 CNS

SMILES	GI50 (CAKI-1 renal) [µM]	TGI (CAKI-1 renal) [µM]	GI50 (MCF7 breast) [µM]	TGI (MCF7 breast) [µM]	GI50 (BT-549 breast) [µM]	TGI (BT-549 breast) [µM]	GI50 (HS 578T breast) [µM]	TGI (HS 578T breast) [µM]	GI50 (786-0 renal) [µM]	TGI (786-0 renal) [µM]	GI50 (A498 renal) [µM]	TGI (A498 renal) [µM]	GI50 (IGROV1 ovarian) [µM]	TGI (IGROV1 ovarian) [µM]	GI50 (HT29 colon) [µM]	TGI (HT29 colon) [µM]	GI50 (OVCAR-4 ovarian) [µM]	TGI (OVCAR-4 ovarian) [µM]	GI50 (SF-268 CNS) [µM]	TGI (SF-268 CNS) [µM]
COC(=O)[C@H](Cc1cn(C)cn1)NC(=O)[C@H](CC(=O)OCc1ccccc1)NC(=O)Nc1cc(C(F)(F)F)cc(C(F)(F)F)c1	14.1	27.8	3.74	> 100	12	25.8	2.8	8.09	10.9	24.2	12.8	25.4	14.5	29.2	13.9	28.8	11.6	27.1	4.51	18.1
CN1CCN(CCCNC(=O)c2c3c(n4ccccc24)C(=O)c2ncccc2C3=O)CC1	6.76	46.3	0.612	2.62	7.24	20.6	5.32	51.8	1.63	22.3	10	25.1	1.28	5.06	0.612	2.96	0.413	1.56	1.28	24.4
CN(C)c1ccc(/C=C(\C#N)c2cc3ccccc3[nH]2)cc1	1.6	> 100	0.416	> 100	3.86	> 100	1.63	9.49	2.52	> 100	0.391	6.61	1.6	> 100	0.375	15.9	3.75	> 100	2.52	> 100
O=S1(=O)c2ccccc2N(c2ccccc2)c2nnnn21		36.9		> 100		70.5		> 100		32.7		55.4		> 100		67.8		70.4		> 100
CCN(CC)CCNC(=O)c1cccc2c1-c1ccccc1C2=O	> 100	> 100	> 100	> 100	> 100	> 100	> 100	> 100	> 100	> 100	> 100	> 100	> 100	> 100	> 100	> 100	> 100	> 100	> 100	> 100
NC(=O)c1c(NC(=O)c2cccs2)sc2c1CCC(=O)C2	2.65	> 100	2.48	18.7	2.08	8.41	3.27	> 100	4.34	> 100	6	52.9	1.98	36.7	3.12	> 100	0.761	2.75	3.21	> 100
O=C1/C(=C\c2ccc(F)cc2)CN(C(=O)c2ccccc2F)C/C1=C\c1ccc(F)cc1	2.65	9.16	0.436	1.68	1.85	3.41	3.66	20.3	1.61	3.17	2.02	6.71	1.82	3.62	0.373	1.35	2.33	6.53	2.02	4.97
COc1cc(OCc2ccccc2)c2c(CCC(=O)O)cc(=O)oc2c1 (tested in a mixture with another compound)		> 100		61.7		> 100		> 100		> 100		80.6		> 100		> 100		> 100		> 100
CCc1nc(C)cn1C(=O)OCc1nc2nc(Cl)nc(N3CCOCC3)c2[nH]1	0.406	1.71	0.633	2.44	1.55	4.26	1.74	4.89	1.61	3.29	1.92	3.54	0.501	1.86	1	4.04	1.49	2.93	1.53	3.06
COc1ccc(Cn2cc(COc3cc(/C=C/C(=O)c4cc(OC)c(OC)c(OC)c4)ccc3OC)nn2)cc1	5.68	> 100	3.15	> 100	3.33	> 100	7.88	> 100	5.01	> 100	12.8	> 100	4.14	> 100	3.65	9.68	7.04	> 100	3.75	> 100
